From patent US20200054651A1, “COMPOSITIONS AND METHODS FOR MODULATING PPP2R1A” (The Regents of the University of California, priority 2017, published 2020)

Assays:
[1] = target: T1, C328 on vimentin (Homo sapiens, UniProt P08670); experiment: Competitive isoTOP-ABPP in 231MFP proteomes in vitro; assay type: binding; settings: 10 μM, in vitro treatment of 231MFP proteomes
T1 construct: in vitro treatment of 231MFP breast cancer cell proteomes with withaferin A; endogenous in cells; host or cells: 231MFP breast cancer cells
Protocol: IsoTOP-ABPP studies were performed using the methods described in “Nature 534(7608), 570-574 (2016)” by Backus K. M., et al. and “Nature 468(7325), 790-795 (2010)” by Weerapana E., et al. Proteome samples diluted in PBS were treated with Withaferin A or vehicle for 30 minutes at 37° C. Then, IAyne (iodoacetamide-alkyne) labeling was performed for 1 hour at room temperature. CuAAC was used by sequential addition of tris(2-carboxyethyl)phosphine (1 mM), tris[(1-benzyl-1H-1,2,3-triazol-4-yl)methyl]amine (34 μM), copper (II) sulfate (1 mM), and biotin-linker-azide where the linker was functionalized with a TEV protease recognition sequence along with an isotopically light or heavy valine for treatment of control or treated proteome, respectively. After click reactions, proteomes were precipitated by centrifugation at 6500×g, washed in ice-cold methanol, combined in a 1:1 control/treated ratio, washed again, then denatured and re-solubilized by heating in 1.2% SDS/PBS to 80° C. for 5 minutes. Insoluble components were precipitated by centrifugation at 6500×g and soluble proteome was diluted in 0.2% SDS/PBS (5 ml). Labeled proteins were bound to avidin-agarose beads (170 μl re-suspended beads/sample) while rotating overnight at 4° C. Bead-linked proteins were enriched by washing three times each in PBS and water, then re-suspended in urea/PBS (6 M), reduced in TCEP (1 mM), alkylated with iodoacetamide (18 mM), then washed and re-suspended in urea/PBS (2 M), and finally trypsinized overnight with 0.5 μg/μl sequencing grade trypsin. Tryptic peptides were eluted off. Beads were washed in PBS (3 times) and water (3 times), washed in TEV buffer solution (water, TEV buffer, 100 μM dithiothreitol), and re-suspended in buffer with Ac-TEV protease and then incubated overnight. Peptides were diluted in water, acidified with formic acid (1.2 M), and prepared for analysis.
Peptides from all proteomic experiments were pressure-loaded onto an Agilent 600 series RP-HPLC system equipped with a capillary tubing (250 mm) packed with Aqua C18 reverse-phase resin (4 cm). The system was previously equilibrated with a gradient (0% B to 100% B over 10 minutes, 100% B for 5 minutes, then 0% B for 5 minutes; buffer A: 95:5 water:acetonitrile, 0.1% formic acid; buffer B: 80:20 acetonitrile:water, 0.1% formic acid). The samples were then attached using a MicroTee PEEK 360 μm fitting to a laser pulled column (13 cm) packed with Aqua C18 reverse-phase resin (10 cm) and strong-cation exchange resin (3 cm) for isoTOP-ABPP studies. Samples were analyzed using an Q Exactive Plus mass spectrometer using a 5-step Multidimensional Protein Identification Technology (MudPIT) program. […]

[2] = tested on: 231MFP tumor xenograft; experiment: 231MFP tumor xenograft growth; assay type: in vivo, immune-deficient SCID mice; settings: 50 mg/kg ip, daily, initiated 15 days after tumor xenograft injection

T1 sequence (P08670 whole entry): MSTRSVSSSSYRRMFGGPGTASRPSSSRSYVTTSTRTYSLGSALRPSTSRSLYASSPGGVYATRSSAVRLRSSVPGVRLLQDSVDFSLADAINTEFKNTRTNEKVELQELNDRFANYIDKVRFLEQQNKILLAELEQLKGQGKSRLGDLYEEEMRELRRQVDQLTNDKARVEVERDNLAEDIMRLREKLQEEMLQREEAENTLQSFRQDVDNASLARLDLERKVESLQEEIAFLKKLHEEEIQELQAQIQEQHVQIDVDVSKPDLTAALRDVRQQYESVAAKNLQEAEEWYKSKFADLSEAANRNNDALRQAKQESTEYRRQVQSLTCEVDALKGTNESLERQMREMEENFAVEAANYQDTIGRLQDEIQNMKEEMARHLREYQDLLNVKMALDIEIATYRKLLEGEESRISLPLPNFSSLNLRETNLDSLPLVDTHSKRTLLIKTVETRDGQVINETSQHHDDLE

| Compound | light to heavy ratio, C328 on vimentin [1] | 231MFP tumor xenograft growth [2] |
| --- | --- | --- |
| CC1=C(CO)C(=O)O[C@@H]([C@@H](C)[C@H]2CC[C@H]3[C@@H]4C[C@H]5O[C@]56[C@@H](O)C=CC(=O)[C@]6(C)[C@H]4CC[C@]23C)C1 [withaferin A, reference compound] | 1.0 | – |
| O=C(CCl)N(Cc1ccccc1)c1ccc2c(c1)OCCO2 [JNS 1-40, N-benzyl-2-chloro-N-(2,3-dihydrobenzo[b][1,4]dioxin-6-yl)acetamide] | – | significantly attenuated tumor growth |
